Measurements as given in publication PMC11224111, “Optimizing the pharmacokinetics of an ^211At-labeled RGD peptide with an albumin-binding moiety via the administration of an albumin-binding inhibitor” (European Journal of Nuclear Medicine and Molecular Imaging, 2024).
Like-named read-outs stand apart in the source and are kept apart here. Marks after values point to notes of the source that are not given here. Each block holds one molecule with its values, some of them ahead of it.

How the values were obtained:
[1] = Biodistribution of [^211At]1 and [^125I]2 in normal mice with ibuprofen or IPBA as albumin-binding inhibitor; settings: inhibitor at 1 h postinjection, 4 h postinjection of radiotracer
Method: To evaluate the effects of albumin-binding inhibitors in normal mice, [^211At]1 (37 kBq) and [^125I]2 (37 kBq) were intravenously coadministered. […] The total blood albumin (1.1 µmol) in normal mice was calculated from the albumin concentration (3.0 g/dL ≈ 455 µM) in blood, which was informed from Japan SLC, Inc., total blood volume (2.5 mL) as 8% of body weight, and the molecular weight of albumin as 66,000 g/mol. […]
Table S1. Biodistribution of radioactivity 4 h after administration of [^211At]1 and [^125I]2 in normal mice.

[2] = Biodistribution of [^125I]2 and [^67Ga]3 in normal mice with IPBA; format: in vivo; settings: for tissue uptake at 4 h / tissue uptake dose at 4 h: male, ddY, iv, total radioactivity
Method: To evaluate the effects of inhibitors in normal mice, [^125I]2 (37 kBq) and [^67Ga]3 (37 kBq) were intravenously coadministered into 6 weeks male ddY mice (29-36 g, Japan SLC, Inc., Hamamatsu, Japan). At 1 h postinjection of radiotracers, sodium 4-(4-iodophenyl)butanoate (IPBA) at 2 (680 µg, 2.2 µmol) or 5 (1.7 mg, 5.5 µmol) molar equivalent of blood albumin was administered. Mice were sacrificed at 4 h post-injection of radiotracers.
Table S2. […] IPBA as an inhibitor was administered at 1 h postinjection of [^125I]2 and [^67Ga]3.

[3] = system: U-87 MG tumor-bearing mice; design: method as in PMID 37819452; settings: 24-h postinjection, without IPBA; cited from earlier work
[4] = cited from earlier work
[5] = normal mice, 4 h after administration of [^125I]2 and [^67Ga]3, IPBA 2 eq at 1 h postinjection
[6] = normal mice, 4 h after administration of [^125I]2 and [^67Ga]3, IPBA 5 eq at 1 h postinjection
[7] = normal mice, 4 h after administration, without IPBA

Effect of inhibitor on blood radioactivity of [^211At]1 [1]: decreased in a dose-dependent manner
Structure (SMILES): O=C([O-])CCCc1ccc(I)cc1.[Na+] [IPBA, sodium 4-(4-iodophenyl)butanoate, reference compound]

tissue uptake at 4 h ([2]; mouse, heart, normal mice, 4 h after administration of [^125I]2 and [^67Ga]3, IPBA 5 eq at 1 h postinjection, read-out: Radioactivity, Heart): 0.29 %ID/g
tissue uptake at 4 h ([2]; mouse, in vivo, Radioactivity, L. intestine): 3.07 %ID/g
tissue uptake at 4 h ([2]; mouse, in vivo, Radioactivity, S. intestine): 1.05 %ID/g
tissue uptake at 4 h ([2]; mouse, kidney, normal mice, 4 h after administration of [^125I]2 and [^67Ga]3, IPBA 5 eq at 1 h postinjection, read-out: Radioactivity, Kidney): 8.04 %ID/g
tissue uptake at 4 h ([2]; mouse, liver, normal mice, 4 h after administration of [^125I]2 and [^67Ga]3, IPBA 5 eq at 1 h postinjection, read-out: Radioactivity, Liver): 1.54 %ID/g
tissue uptake dose at 4 h ([2]; mouse, neck, normal mice, 4 h after administration of [^125I]2 and [^67Ga]3, IPBA 2 eq at 1 h postinjection, read-out: Radioactivity, Neck): 0.01 %ID
tissue uptake dose at 4 h ([2]; mouse, neck, normal mice, 4 h after administration of [^125I]2 and [^67Ga]3, IPBA 5 eq at 1 h postinjection, read-out: Radioactivity, Neck): 0.01 %ID
tissue uptake dose at 4 h ([2]; mouse, stomach, normal mice, 4 h after administration of [^125I]2 and [^67Ga]3, IPBA 2 eq at 1 h postinjection, read-out: Radioactivity, Stomach): 0.48 %ID
tissue uptake dose at 4 h ([2]; mouse, stomach, normal mice, 4 h after administration of [^125I]2 and [^67Ga]3, IPBA 5 eq at 1 h postinjection, read-out: Radioactivity, Stomach): 0.59 %ID
Change of biodistribution by IPBA administration ([2]; normal mice, IPBA 2 or 5 eq at 1 h postinjection): did not change biodistribution
Structure (SMILES): N=C(N)NCCC[C@@H]1NC(=O)[C@H](CCCCNC(=O)[C@H](CCCCN)NC(=O)CN2CCN(CC(=O)O)CCN(CC(=O)O)CCN(CC(=O)O)CC2)NC(=O)[C@@H](Cc2ccccc2)NC(=O)[C@H](CC(=O)O)NC(=O)CNC1=O [[^67Ga]3, [^67Ga]Ga-DOTA-K-c(RGDfK), metal not drawn]
Radioactivity, L. intestine ([2]; mouse, in vivo): 4.88 (1.50) ^a % injected activity per gram
Radioactivity, S. intestine ([2]; mouse, in vivo): 1.76 (0.40) ^*,^ b % injected activity per gram
Radioactivity, Blood [2, 5]: 0.03 (0.01) ^***,^ a % injected activity per gram
Radioactivity, Bone [2, 5]: 0.55 (0.08) ^**,^ a % injected activity per gram
Radioactivity, Brain [2, 5]: 0.04 (0.01) ^** % injected activity per gram
Radioactivity, Heart [2, 5]: 0.23 (0.03) ^***,^ a % injected activity per gram
Radioactivity, Kidney [2, 5]: 6.67 (1.04) ^* % injected activity per gram
Radioactivity, Liver [2, 5]: 1.18 (0.14) ^*** % injected activity per gram
Radioactivity, Lung [2, 5]: 0.49 (0.05) ^***,^ a % injected activity per gram
Radioactivity, Muscle [2, 5]: 0.16 (0.02) ^***,^ a % injected activity per gram
Radioactivity, Pancreas [2, 5]: 0.33 (0.01) ^*** % injected activity per gram
Radioactivity, Spleen [2, 5]: 0.64 (0.16) ^*** % injected activity per gram
Radioactivity, Blood [2, 6]: 0.03 (0.00) ^*,^ a % injected activity per gram
Radioactivity, Bone [2, 6]: 0.70 (0.12) ^** % injected activity per gram
Radioactivity, Brain [2, 6]: 0.05 (0.02) ^** % injected activity per gram
Radioactivity, Lung [2, 6]: 0.55 (0.11) ^*,^ a % injected activity per gram
Radioactivity, Muscle [2, 6]: 0.23 (0.04) ^*,^ b % injected activity per gram
Radioactivity, Pancreas [2, 6]: 0.47 (0.13) ^** % injected activity per gram
Radioactivity, Spleen [2, 6]: 0.90 (0.28) ^* % injected activity per gram
Tumor accumulation [3]: 1.84 ± 0.09 %IA/g
Radioactivity, L. intestine ([4]; mouse, in vivo): 1.88 (0.65) % injected activity per gram
Radioactivity, S. intestine ([4]; mouse, in vivo): 1.16 (0.15) ^* % injected activity per gram
Radioactivity, Blood [4, 7]: 0.09 (0.05) ^*** % injected activity per gram
Radioactivity, Bone [4, 7]: 0.83 (0.05) ^* % injected activity per gram
Radioactivity, Brain [4, 7]: 0.05 (0.00) ^*** % injected activity per gram
Radioactivity, Heart [4, 7]: 0.26 (0.04) ^*** % injected activity per gram
Radioactivity, Kidney [4, 7]: 6.61 (0.81) ^* % injected activity per gram
Radioactivity, Liver [4, 7]: 1.15 (0.07) ^** % injected activity per gram
Radioactivity, Lung [4, 7]: 0.50 (0.04) ^*** % injected activity per gram
Radioactivity, Muscle [4, 7]: 0.19 (0.02)^ *** % injected activity per gram
Radioactivity, Neck [4, 7]: 0.02 (0.00)^ ** % injected activity
Radioactivity, Pancreas [4, 7]: 0.40 (0.03)^ *** % injected activity per gram
Radioactivity, Spleen [4, 7]: 0.64 (0.12) ^*** % injected activity per gram
Radioactivity, Stomach [4, 7]: 0.44 (0.04)^ * % injected activity
